Assay results as given in US7666446B2, “Oral formulation for delivery of poorly absorbed drugs” (ProCarrier, Inc., priority 2004, dated 2010).
Like-named read-outs stand apart in the source and are kept apart here. One block for each compound: values may come before it.

Experiments:
[1] = diabetic rats, intraduodenal, insulin 50 IU/kg in carrier (100 units)
Excerpt: (§1) The abdominal muscle was sutured under the skin. […] Four rats were in each treatment group. […]

[2] = tested on: diabetes induced rats; test: Serum glucose after intraduodenal insulin/PEP in diabetic rats; assay type: in vivo; conditions: insulin 50 IU/kg in carrier (100 units)
Excerpt: as §1

[3] = tested on: non-diabetic rats; test: Serum glucose after intraduodenal insulin/PEP in non-diabetic rats; assay type: in vivo; conditions: insulin 50 IU/kg in carrier (100 units)
Excerpt: as §1

[4] = Plasma calcitonin after intraduodenal calcitonin/PEP (ELISA); assay type: in vivo; conditions: male, Sprague-Dawley, rat, rats, read-out: Average plasma concentration of Calcitonin
Procedure: as §1
Plasma was analyzed by ELISA according to methods well known in the art.

[5] = Plasma isepamicin after intraduodenal isepamicin/PEP (HPLC); assay type: in vivo; conditions: male, Sprague-Dawley, rat, other: intraduodenal, rats
Procedure: as §1
Isepamicin solution was mixed with methylcellulose solution, and the resulting mixture was mixed with solutions of glucosamine and sucrose stearate 16 in water before administration to rats. […] The contents of isepamicin/PEP comprised an individual dosage of 75 mg/kg isepamicin, 400 mg/kg sucrose stearate, glucosamine in a 1:4 mole ratio of isepamicin to glucosamine, and methylcellulose in a 1:0.5 mole ratio of isepamicin to methylcellulose. […] Plasma was analyzed by HPLC, and bioavailability was calculated.

[6] = Intraduodenal absorption of rhGH/PEP solutions, rhGH by ELISA (Example 3); assay type: in vivo, male Sprague-Dawley rats; conditions: rats, rhGH administered without PEP solution
Procedure: RhGH solutions containing a promoter (glucosamine or poly-L-lysine), an enhancer (sucrose laurate 16), and a protector (methylcellulose) were prepared in water according to the proportions set out in Table 2.
as §1

[7] = Decomposition test: rhGH concentration by ELISA after shaking; assay type: physicochemical
Procedure: A solution of rhGH (5 ng/mL) was prepared in 20 mM phosphate buffer. The phosphate buffer was prepared in triple-distilled, filtered water (0.22 μm filter), and its pH was adjusted to pH 7.4 with sodium hydroxide solution. Solutions of rhGH were shaken for 1 min at high speed with a vortex mixer (Scientific Industries Inc.). After shaking, samples were equilibrated for specific time intervals at room temperature. Concentrations of rhGH were then determined by ELISA according to methods well known in the art.

[8] = rat, in vivo
Procedure: To determine absorption from the intestine, male Sprague Dawley rats weighing 250-300 g with free access to water were fasted for about 18 h prior to experiments. These rats were anesthetized and maintained with Ketamine/Xylazine (([…])/(80 mg/kg)) by intraperitoneal injection. The small intestine was exposed by a midline abdominal incision. A small incision was made in the stomach to insert a polyethylene tube (i.d. 0.76 mm, o.d. 1.22 mm, Clay Adams), toward the middle duodenum, which was closed at the exposed end by a stopcock to prevent drainage of drug solution from the duodenum. Blood samples were taken with a heparinized syringe through the jugular vein catheter at predetermined time intervals. After collecting, samples were coagulated for about 90 min and then were centrifuged for 10 min at 6000 rpm. The supernatant was removed and stored at −20° C. Samples were analyzed for hGH protein levels with a Human Growth Hormone ELISA Kit (coated plate, ICN Diagnostics) according to the manufacturer's protocol.
For the controls, either glucosamine 40 mg/kg plus sucrose laurate 40 mg/kg (i.e., 100 units of carrier) or 10 mg/kg of rhGH (Advanced Protein Technologies Inc., Suwon, Korea) were administered per intraduodenum. […] To evaluate the effect of varying the amount of carrier administered, the amount of rhGH was held at 3 mg/kg rhGH and the Tmax was measured. […] In the case of intraduodenal administration, the controls were fixed at 10 units of carrier. The amount of rhGH was varied to include 1, 3, and 10 mg/kg of rhGH.
Finally, to evaluate the effectiveness of the carrier itself, the type of carrier was varied while maintaining the same level of rhGH (3 mg/kg).

[9] = Plasma netilmicin after intraduodenal netilmicin/PEP (HPLC); assay type: in vivo; conditions: male, Sprague-Dawley, rat, rats
Procedure: as §1
(§2) Netilmicin solution was mixed with a solution of methylcellulose, and this mixture was added to solutions of glucosamine and sucrose stearate in water before administration to rats. […] The contents of netilmicin/PEP comprised an individual dosage of 80 mg/kg netilmicin, 400 mg/kg sucrose stearate, glucosamine in a 1:4 mole ratio of netilmicin to glucosamine, and methylcellulose in a 1:0.5 mole ratio of netilmicin to methylcellulose. […] Plasma was analyzed by HPLC, and bioavailability was calculated.

[10] = Plasma aztreonam after intraduodenal aztreonam/PEP (HPLC); assay type: in vivo; conditions: male, Sprague-Dawley, rat, rats
Procedure: as §1
Aztreonam solution (containing arginine as a pH adjuster) was mixed with a solution of methylcellulose, and this mixture was added to solutions of glucosamine and sucrose palmitate in water before administration to rats. […] The contents of aztreonam/PEP comprised an individual dosage of 40 mg/kg aztreonam, 400 mg/kg sucrose palmitate, glucosamine in a 1:4 mole ratio of aztreonam to glucosamine, methylcellulose in a 1:0.5 mole ratio of aztreonam to methylcellulose, and arginine in a 1:0.6 mole ratio of aztreonam to arginine. […] Plasma was analyzed by HPLC, and bioavailability was calculated.

[11] = Plasma teicoplanin after intraduodenal teicoplanin/PEP (HPLC); assay type: in vivo; conditions: rats
Procedure: as §1
as §2, with “Teicoplanin” for “Netilmicin”, “teicoplanin/PEP” for “netilmicin/PEP”, “64” for “80”, “teicoplanin,” for “netilmicin,”, “teicoplanin” for “netilmicin”

Compound: insulin: insulin given with methylcellulose, sucrose laurate 16 and glucosamine (insulin/PEP composition)
- serum insulin [1]: detected
- hypoglycemic effect (serum glucose) [2]: significant hypoglycemic effects were observed
- hypoglycemic response (serum glucose) [3]: No significant hypoglycemic response

Compound: rhGH: recombinant human growth hormone
- rhGH in serum [6]: not detected
- Concentration rhGH ([7]; 0 min, 5 ng/mL rhGH, phosphate buffer pH 7.4): 5 ng/mL
- Concentration rhGH ([7]; 1 min after shaking, room temperature): 1.05 ng/mL
- Concentration rhGH ([7]; 30 min after shaking, room temperature): 0.65 ng/mL
- Concentration rhGH ([7]; 60 min after shaking, room temperature): 0.43 ng/mL
- Concentration rhGH ([7]; 90 min after shaking, room temperature): 0.40 ng/mL
- Tmax ([8]; 3 mg/kg): less than 20 min
- absorption of rhGH ([8]; 3 mg/kg): increased absorption
- bioavailability ([8]; 3 mg/kg): 7.1%
- peak serum rhGH concentration ([8]; sc, 0.1 mg/kg): 73 ng/mL

Compound: CCN[C@@H]1C[C@H](N)[C@@H](O[C@H]2OC(CN)=CC[C@H]2N)[C@H](O)[C@H]1O[C@H]1OC[C@](C)(O)[C@H](NC)[C@H]1O [Netilmicin]
- concentration at 60 min ([9]; other: intraduodenal, netilmicin/PEP 80 mg/kg netilmicin, 60 min): 70700 ng/mL
- concentration at 120 min ([9]; other: intraduodenal, netilmicin/PEP 80 mg/kg netilmicin, 120 min): 39300 ng/mL
- concentration at 180 min ([9]; other: intraduodenal, netilmicin/PEP 80 mg/kg netilmicin, 180 min): 38900 ng/mL
- concentration at 240 min ([9]; other: intraduodenal, netilmicin/PEP 80 mg/kg netilmicin, 240 min): 35800 ng/mL
- concentration at 360 min ([9]; other: intraduodenal, netilmicin/PEP 80 mg/kg netilmicin, 360 min): 34800 ng/mL
- concentration at 30 min ([9]; other: intraduodenal, netilmicin/PEP (80 mg/kg netilmicin, 400 mg/kg sucrose stearate, glucosamine, methylcellulose), 30 min): 62100 ng/mL
- bioavailability ([9]; netilmicin/PEP 80 mg/kg netilmicin, read-out: percent bioavailability): 73%

Compound: C[C@H]1[C@H](NC(=O)/C(=N\OC(C)(C)C(=O)O)c2csc(N)n2)C(=O)N1S(=O)(=O)O [Aztreonam]
- concentration at 60 min ([10]; other: intraduodenal, aztreonam/PEP 40 mg/kg aztreonam, 60 min): 97000 ng/mL
- concentration at 90 min ([10]; other: intraduodenal, aztreonam/PEP 40 mg/kg aztreonam, 90 min): 87900 ng/mL
- concentration at 120 min ([10]; other: intraduodenal, aztreonam/PEP 40 mg/kg aztreonam, 120 min): 89600 ng/mL
- concentration at 180 min ([10]; other: intraduodenal, aztreonam/PEP 40 mg/kg aztreonam, 180 min): 67000 ng/mL
- concentration at 240 min ([10]; other: intraduodenal, aztreonam/PEP 40 mg/kg aztreonam, 240 min): 55200 ng/mL
- concentration at 30 min ([10]; other: intraduodenal, aztreonam/PEP (40 mg/kg aztreonam, 400 mg/kg sucrose palmitate, glucosamine, methylcellulose, arginine), 30 min): 95400 ng/mL
- bioavailability ([10]; aztreonam/PEP 40 mg/kg aztreonam, read-out: percent bioavailability): 91.1 ± 14.6%

Second part, the compound after the results:

- level at 0.5 h ([4]; calcitonin/PEP 2 mg/kg calcitonin, 30 min): 8.61 ng/mL
- level at 0.75 h ([4]; calcitonin/PEP 2 mg/kg calcitonin, 45 min): 10.9 ng/mL
- level at 1 h ([4]; calcitonin/PEP 2 mg/kg calcitonin, 60 min): 7.55 ng/mL
- level at 1.5 h ([4]; calcitonin/PEP 2 mg/kg calcitonin, 90 min): 3.36 ng/mL
- level at 2 h ([4]; calcitonin/PEP 2 mg/kg calcitonin, 120 min): 1.72 ng/mL
- level at 3 h ([4]; calcitonin/PEP 2 mg/kg calcitonin, 180 min): 0.69 ng/mL
- level at 4 h ([4]; calcitonin/PEP 2 mg/kg calcitonin, 240 min): 0.99 ng/mL
- level at 0.25 h ([4]; calcitonin/PEP (2 mg/kg calcitonin, 40 mg/kg sucrose laurate 16, glucosamine, methylcellulose), 15 min): 8.02 ng/mL
Compound: CC(C)C[C@H](NC(=O)[C@H](CCCCN)NC(=O)CNC(=O)[C@H](CC(C)C)NC(=O)[C@@H](NC(=O)[C@@H]1CSSC[C@H](N)C(=O)N[C@@H](CO)C(=O)N[C@@H](CC(N)=O)C(=O)N[C@@H](CC(C)C)C(=O)N[C@@H](CO)C(=O)N[C@@H]([C@@H](C)O)C(=O)N1)C(C)C)C(=O)N[C@@H](CO)C(=O)N[C@@H](CCC(N)=O)C(=O)N[C@@H](CCC(=O)O)C(=O)N[C@@H](CC(C)C)C(=O)N[C@@H](Cc1c[nH]cn1)C(=O)N[C@@H](CCCCN)C(=O)N[C@@H](CC(C)C)C(=O)N[C@@H](CCC(N)=O)C(=O)N[C@H](C(=O)N[C@@H](Cc1ccc(O)cc1)C(=O)N1CCC[C@H]1C(=O)N[C@@H](CCCNC(=N)N)C(=O)N[C@H](C(=O)N[C@@H](CC(N)=O)C(=O)N[C@H](C(=O)NCC(=O)N[C@@H](CO)C(=O)NCC(=O)N[C@H](C(=O)N1CCC[C@H]1C(N)=O)[C@@H](C)O)[C@@H](C)O)[C@@H](C)O)[C@@H](C)O [Calcitonin]

- concentration at 60 min ([5]; isepamicin/PEP 75 mg/kg isepamicin, 60 min): 102000 ng/mL
- concentration at 120 min ([5]; isepamicin/PEP 75 mg/kg isepamicin, 120 min): 73600 ng/mL
- concentration at 180 min ([5]; isepamicin/PEP 75 mg/kg isepamicin, 180 min): 49900 ng/mL
- concentration at 240 min ([5]; isepamicin/PEP 75 mg/kg isepamicin, 240 min): 43900 ng/mL
- concentration at 360 min ([5]; isepamicin/PEP 75 mg/kg isepamicin, 360 min): 35800 ng/mL
- concentration at 30 min ([5]; isepamicin/PEP (75 mg/kg isepamicin, 400 mg/kg sucrose stearate, glucosamine, methylcellulose), 30 min): 84200 ng/mL
Compound: CN[C@@H]1[C@@H](O)[C@@H](O[C@@H]2[C@@H](O)[C@H](O[C@H]3O[C@H](CN)[C@@H](O)[C@H](O)[C@H]3O)[C@@H](N)C[C@H]2NC(=O)[C@@H](O)CN)OC[C@]1(C)O [Isepamicin]

- percent bioavailability ([11]; teicoplanin/PEP 64 mg/kg teicoplanin): 35.07%
- Average plasma concentration Teicoplanin ([11]; teicoplanin/PEP 64 mg/kg teicoplanin, 60 min): 9.50 µg/mL
- Average plasma concentration Teicoplanin ([11]; teicoplanin/PEP 64 mg/kg teicoplanin, 120 min): 10.36 µg/mL
- Average plasma concentration Teicoplanin ([11]; teicoplanin/PEP 64 mg/kg teicoplanin, 180 min): 12.22 µg/mL
- Average plasma concentration Teicoplanin ([11]; teicoplanin/PEP 64 mg/kg teicoplanin, 240 min): 11.29 µg/mL
- Average plasma concentration Teicoplanin ([11]; teicoplanin/PEP (64 mg/kg teicoplanin, 400 mg/kg sucrose stearate, glucosamine, methylcellulose), 30 min): 11.14 µg/mL
Compound: Teicoplanin
